Earlier results on one compound are cited in patent US20160143918A1, “DRUG RELEASING AGENT BASED ON beta-SITOSTEROL AND A PREPARATION METHOD THEREOF” (School of Medicine Jiaying University, priority 2014, published 2016).

`CC[C@H](CC[C@@H](C)[C@H]1CC[C@H]2[C@@H]3CC=C4C[C@@H](O)CC[C@]4(C)[C@H]3CC[C@]12C)C(C)C` [β-sitosterol]: the “solubility in organic solvents” value (organic solvents) is “soluble in organic solvents”. Moreover, the solubility in water result (water) is given as “insoluble in water”.
